Measured values: US8962547B2 (Signature Therapeutics, Inc., priority 2011, dated 2015)

How the values were obtained:
[1] = Pharmacokinetics following PO administration to dogs, Study A (oxycodone in plasma)
[2] = molecular target: T1, trypsin (Bos taurus, UniProt P00760); assay: In vitro trypsin-mediated prodrug cleavage; assay type: biochemical, bovine; conditions: bovine, trypsin from bovine pancreas; 0.761 mM KC-8•2HCl, Tris pH 8, 37° C.; footnote: adjusted to 4815 BAEE U/mL trypsin
T1 construct: purchased Sigma-Aldrich T8003; host or cells: bovine pancreas
T1 sequence (P00760 24-246): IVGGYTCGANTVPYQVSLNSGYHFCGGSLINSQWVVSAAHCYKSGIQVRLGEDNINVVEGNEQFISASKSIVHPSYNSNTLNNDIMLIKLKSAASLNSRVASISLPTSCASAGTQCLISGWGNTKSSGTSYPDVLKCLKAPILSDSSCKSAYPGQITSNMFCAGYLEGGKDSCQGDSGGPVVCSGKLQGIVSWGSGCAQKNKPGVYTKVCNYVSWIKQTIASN
Method: (§1) The reactions were conducted at 37° C. for 24 h.
(§2) Table 3 indicates the results of exposure of Compound KC-8 to trypsin. […] Table 3 also indicates the cyclization rate of the cyclizable spacer leaving group of Compound KC-22. The results are expressed as half-life of compound disappearance.

[3] = molecular target: T2, trypsin from bovine pancreas (Bos taurus, UniProt P00760); assay: In vitro trypsin-mediated prodrug cleavage; assay type: biochemical
T2 construct: purchased Sigma-Aldrich T8003; host or cells: bovine pancreas
T2 sequence (P00760 24-246): T1 sequence (P00760 24-246)
Method: as §1, §2

[4] = Pharmacokinetics of Compound KC-8 following PO administration to dogs, Study B; assay type: in vivo, dog; conditions: 4.55 to 18.2 mg/kg
Method: Compound KC-8 was also dosed to dogs in a separate experiment at the doses indicated in Table 2B, and samples were collected at various times over a 48-h period. Otherwise, the procedures were the same as that described for Study A.

[5] = Spacer leaving group cyclization release rate in phosphate buffer; assay type: physicochemical; conditions: 2.18 mM initial, 50 mM pH 7.4 phosphate buffer, 20° C.
From the text: as §2

[6] = male, beagle, dog, plasma, po, 2 mg/kg

N-1-[2-(oxycodone-6-enol-carbonyl-methyl-amino)-ethylamine]-arginine-malonic acid [Compound KC-3]
OC Cmax ± sd ([1]; oxycodone in dog plasma, 4.15 mg/kg ([…]) PO, LLOQ […]): 10.2 ± 3.3 ng/mL
AUC ± sd 0-24 h ([1]; oxycodone in dog plasma, 4.15 mg/kg PO): 65.6 ± 22 ng·h/mL

COc1ccc2c3c1O[C@H]1C(OC(=O)N(C)CC(C)(C)CNC(=O)[C@H](CCCNC(=N)N)NC(=O)CNC(=O)CC(=O)O)=CC[C@@]4(O)[C@@H](C2)N(C)CC[C@]314 [Compound KC-8, N-1-[3-(oxycodone-6-enol-carbonyl-methyl-amino)-2,2-dimethyl-propylamine]-arginine-glycine-malonic acid]
half-life at 0.761 mM [2]: 11.3 ± 0.48 min
OC formation rate ([3]; 0.761 mM KC-8•2HCl, Tris pH 8, 37° C.): 0.296 ± 0.044 μmol/h/BAEE U
cleavage by trypsin ([3]; in vitro): can be cleaved by trypsin
oral PK profile in dogs [4]: reproducible oral PK profile in dogs that is dose proportional
oxycodone PK profile compared to administration of oxycodone ([1]; dogs, PO): suppressed oxycodone Cmax, delayed oxycodone Tmax and extended oxycodone exposure time (AUC)
release of oxycodone into dog plasma compared to Compound KC-3 ([1]; dogs, PO): significantly enhanced release of oxycodone into dog plasma (higher Cmax and AUC)

COc1ccc2c3c1O[C@H]1C(=O)CC[C@@]4(O)[C@@H](C2)N(C)CC[C@]314.Cl [Oxycodone, oxycodone HCl, reference compound]
AUC [1, 6]: 418 ± 54 ng·h/mL
Cmax [1, 6]: 193 ± 69 ng/mL
Tmax [1, 6]: 30 min

COc1ccc2c3c1O[C@H]1C(OC(=O)N(C)CC(C)(C)CN)=CC[C@@]4(O)[C@@H](C2)N(C)CC[C@]314 [Compound KC-22, N-1-[3-(oxycodone-6-enol-carbonyl-methyl-amino)-2,2-dimethyl-propylamine]]
Disappearance half-life [5]: 624 ± 0.36 min
